The results in this text go back to patent US20210228525A1, “Methods of Administering Monomethyl Fumarate and Prodrugs Thereof Having Reduced Side Effects” (Arbor Pharmaceuticals, LLC, priority 2012, published 2021).

The series is described as follows: Randomized double-blind crossover food effect single-dose study: safety and tolerability (flushing, feeling hot). The class given is in vivo, human. As to conditions: for Subjects reporting flushing: fasted group; for Subjects reporting feeling hot more than for placebo: fed or fasted groups. The text has this: Twenty-four healthy adult volunteers (males and females) participated in the study. Twelve of the subjects received a dosage form of Example 3, once in a fed condition and once in a fasted condition, with a two-week washout between treatments. The fasted dosing was achieved by dosing the subject following an overnight fast while the fed dosing was achieved by dosing the subject after consuming a high fat-content breakfast.
Twelve healthy adult volunteers (males and females) participated in the study. All twelve subjects received a dosage form of Example 5, once in a fed condition and once in a fasted condition, with a two-week washout between treatments. The fasted dosing was achieved by dosing the subject following an overnight fast while the fed dosing was achieved by dosing the subject after consuming a high fat-content breakfast.
Twelve healthy adult volunteers (males and females) participated in the study. All twelve subjects received a dosage form of Example 10, once in a fed condition and once in a fasted condition, with a two-week washout between treatments. The fasted dosing was achieved by dosing the subject following an overnight fast while the fed dosing was achieved by dosing the subject after consuming a high fat-content breakfast.

[1] abbreviates: Example 3 dosage form, 200 mg single dose.
The mark [2] stands for this setting: Example 5 dosage form, 200 mg single dose.
Setting [3] is: Example 10 dosage form, single dose.

For the compound `CCN(CC)C(=O)COC(=O)/C=C/C(=O)OC` [Compound (1), (N,N-Diethylcarbamoyl)methyl methyl (2E)but-2-ene-1,4-dioate], under setting [1], the “Severity of all adverse events” value is “mild” and the “Tolerability during the trial” value was “well tolerated”. For the setting “Example 3 dosage form”, the Subjects reporting flushing result was “No subjects”, the “Subjects reporting flushing more frequently than in the fed placebo group” value is recorded as “One” and the “Subjects reporting feeling hot more than for placebo” value is listed as “no subjects”. Under setting [2], the “Severity of all adverse events” value is listed as “mild” and the “Tolerability during the trial” value is “well tolerated”. Moreover, where the note is “Example 5 dosage form”, the Subjects reporting flushing entry is listed as “No subjects”, the “Subjects reporting flushing more frequently than in the fed placebo group” value was “Two” and the “Subjects reporting feeling hot more than for placebo” value was “no subjects”. Under setting [3], the “Adverse events reported in more than one subject and more frequently than for placebo” value is “flushing and feeling hot”; the “Severity of all adverse events” value was “mild”; the “Tolerability during the trial” value was “well tolerated”.
